In patent US9023789B2, “Amylin analogs and pharmaceutical compositions thereof” (Novo Nordisk A/S, priority 2012, dated 2015):
In brackets after ≈: the same amount, converted by molar mass. Read-outs that look alike come from different tables or passages of the source. Numbered stars: 1 amine (or outer) side, 2 acyl side, 3 side chain; on linkers, the order of the positions; unused ones are H or OH. Bridge positions count the residues as written; N and C are the ends. Side chains are listed from the residue outwards. Peptide text beside a SMILES is read from it. * marks the point of attachment. C20 diacid = O=C(O)CCCCCCCCCCCCCCCCCCC(=O)*; γGlu = O=C(O)[C@H](CCC(=O)[*:2])N[*:1]; AEEA = NCCOCCOCC(=O)O

Tests used:
Sprague Dawley (SD) rats = assay: ASSAY (I) efficacy testing on appetite (food intake) using an ad libitum fed rat model; type: in vivo; conditions: rat, 30 nmol/kg
In short: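 Individual food consumption was logged each hour up to 7 h and again at 24 h, occasionally 48 h, with Grubbs-test outliers removed. Each 200–250 g Sprague Dawley rat, free-feeding in its home cage under reversed lighting, received a single ip, po or sc dose of 0.01–3 mg/kg at lights-off, alongside a vehicle group.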

[1] = ASSAY (IV) determination of solubility; type: physicochemical
In short: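 Solubility measured by UPLC of supernatant after centrifugation, following 18 h at room temperature. Peptide ([…] in water) was diluted 1:1 into 100 mM glycylglycine (pH 3.0, 4.0, 5.0) or bistrispropane (pH 6.0-8.0).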

rat calcitonin receptor = target: T1, rat calcitonin receptor (Rattus norvegicus, UniProt P32214); assay: ASSAY (VIII) binding to the rat calcitonin receptor; conditions: Table 7, read-out: rCTR bind IC50
T1 construct: expressed in transfected cells; host or cells: BHK tk'ts 13 (transient, FuGENE 6), membranes
T1 sequence (P32214 25-479 isoform P32214-2 limits assumed): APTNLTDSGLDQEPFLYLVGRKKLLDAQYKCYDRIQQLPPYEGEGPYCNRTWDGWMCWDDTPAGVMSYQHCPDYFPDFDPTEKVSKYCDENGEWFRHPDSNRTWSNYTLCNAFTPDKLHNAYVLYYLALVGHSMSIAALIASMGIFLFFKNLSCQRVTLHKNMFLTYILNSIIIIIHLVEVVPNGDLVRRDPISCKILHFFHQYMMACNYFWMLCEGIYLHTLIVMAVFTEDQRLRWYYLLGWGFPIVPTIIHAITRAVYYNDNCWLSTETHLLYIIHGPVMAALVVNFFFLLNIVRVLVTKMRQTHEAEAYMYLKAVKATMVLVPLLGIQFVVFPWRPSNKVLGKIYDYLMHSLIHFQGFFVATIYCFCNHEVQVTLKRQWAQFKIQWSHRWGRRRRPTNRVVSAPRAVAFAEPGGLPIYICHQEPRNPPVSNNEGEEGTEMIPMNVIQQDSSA
In short: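 BHK tk′ts 13 cells, transient rat calcitonin receptor transfection; DMEM + 10% FBS; harvest ~48 h post-transfection; membrane prep.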

[2] = bistrispropane buffer, pH 6.5, read-out: Solubility pH 6.5 Concentration
[3] = bistrispropane buffer, pH 7.5, read-out: Solubility pH 7.5 Concentration
[4] = bistrispropane buffer, pH 6.0, read-out: Solubility pH 6.0 Concentration
[5] = bistrispropane buffer, pH 7.0, read-out: Solubility pH 7.0 Concentration
[6] = bistrispropane buffer, pH 8.0, read-out: Solubility pH 8.0 Concentration
[7] = glycylglycine buffer, pH 3.0, read-out: Solubility pH 3.0 Concentration
[8] = glycylglycine buffer, pH 4.0, read-out: Solubility pH 4.0 Concentration
[9] = glycylglycine buffer, pH 5.0, read-out: Solubility pH 5.0 Concentration

Row | Structure (SMILES) | Food intake reduction 0-24 h 30 nmol/kg (%) (Sprague Dawley (SD) rats) | Food intake reduction 24-48 h 30 nmol/kg (%) (Sprague Dawley (SD) rats) | solubility at 18 h [1, 2] | solubility at 18 h [1, 3] | solubility at 18 h [1, 4] | solubility at 18 h [1, 5] | solubility at 18 h [1, 6] | solubility at 18 h [1, 7] | solubility at 18 h [1, 8] | solubility at 18 h [1, 9] | IC50 (rat calcitonin receptor) | Solubility pH 6.5 Concentration ([1]; pH 6.5 (Table 9a)) | Solubility pH 7.0 Concentration ([1]; pH 7.0 (Table 9a))
1 | CC[C@H](C)[C@H](NC(=O)[C@H](C)NC(=O)CNC(=O)[C@H](Cc1ccccc1)NC(=O)[C@H](CC(N)=O)NC(=O)[C@@H]1CCCN1C(=O)[C@H](CO)NC(=O)[C@H](CO)NC(=O)[C@H](Cc1c[nH]cn1)NC(=O)[C@H](CCCNC(=N)N)NC(=O)[C@H](CC(C)C)NC(=O)[C@H](Cc1ccccc1)NC(=O)[C@H](CC(N)=O)NC(=O)[C@H](C)NC(=O)[C@H](CC(C)C)NC(=O)[C@H](CCCNC(=N)N)NC(=O)[C@H](CCC(N)=O)NC(=O)[C@@H](NC(=O)[C@H](C)NC(=O)[C@@H]1CSSC[C@H](NC(=O)[C@@H](N)CCCCNC(=O)COCCOCCNC(=O)CC[C@H](NC(=O)CCCCCCCCCCCCCCCCCCC(=O)O)C(=O)O)C(=O)N[C@@H](CC(N)=O)C(=O)N[C@@H]([C@@H](C)O)C(=O)N[C@@H](C)C(=O)N[C@@H]([C@@H](C)O)C(=O)N1)[C@@H](C)O)C(=O)N1CCC[C@H]1C(=O)N[C@@H](CO)C(=O)N[C@@H](CO)C(=O)N[C@H](C(=O)N[C@@H](CC(N)=O)C(=O)N[C@H](C(=O)NCC(=O)N[C@@H](Cc1c[nH]cn1)C(=O)N[C@@H](CC(N)=O)C(=O)N[C@H](C(=O)N[C@@H](Cc1ccc(O)cc1)C(N)=O)[C@@H](C)O)C(C)C)[C@@H](C)O [Example 76] (H-K([AEEA-γGlu-C20 diacid])CNTATCATQRLANFLRHSSPNFGAIPSSTNVGHNTY-NH2; disulfide 2-7; N-terminus assumed) | 31% | 2% | ≥ 200 µM | ≥ 200 µM | ≥ 200 µM | ≥ 200 µM | 140 µM (≈ 638 µg/mL) | ≥ 200 µM | ≥ 200 µM | ≥ 200 µM | 38.9 nM | – | –
2 | CC[C@H](C)[C@H](NC(=O)[C@H](C)NC(=O)CNC(=O)[C@H](Cc1ccccc1)NC(=O)[C@H](CC(N)=O)NC(=O)[C@@H]1CCCN1C(=O)[C@H](CO)NC(=O)[C@H](CO)NC(=O)[C@H](Cc1c[nH]cn1)NC(=O)[C@H](CCCNC(=N)N)NC(=O)[C@H](CC(C)C)NC(=O)[C@H](Cc1ccccc1)NC(=O)[C@H](CC(N)=O)NC(=O)[C@H](C)NC(=O)[C@H](CC(C)C)NC(=O)[C@H](CCCNC(=N)N)NC(=O)[C@H](CCC(N)=O)NC(=O)[C@@H](NC(=O)[C@H](C)NC(=O)[C@@H]1CSSC[C@H](NC(=O)[C@@H](N)CCCCNC(=O)CC[C@H](NC(=O)CCCCCCCCCCCCCCCCCCC(=O)O)C(=O)O)C(=O)N[C@@H](CC(N)=O)C(=O)N[C@@H]([C@@H](C)O)C(=O)N[C@@H](C)C(=O)N[C@@H]([C@@H](C)O)C(=O)N1)[C@@H](C)O)C(=O)N1CCC[C@H]1C(=O)N[C@@H](CO)C(=O)N[C@@H](CO)C(=O)N[C@H](C(=O)N[C@@H](CC(N)=O)C(=O)N[C@H](C(=O)NCC(=O)N[C@@H](Cc1c[nH]cn1)C(=O)N[C@@H](CC(N)=O)C(=O)N[C@H](C(=O)N[C@@H](Cc1ccc(O)cc1)C(N)=O)[C@@H](C)O)C(C)C)[C@@H](C)O [Example 77] | 40% | 16% | ≥ 200 µM | 147 µM (≈ 651 µg/mL) | ≥ 200 µM | ≥ 200 µM | 59 µM (≈ 261 µg/mL) | ≥ 200 µM | ≥ 200 µM | ≥ 200 µM | 205 nM | ≧200 μM | ≧200 μM
